Laboratory results from patent US20250171498A1, “ANTIBIOTIC COMPOUNDS, FORMULATIONS AND METHODS OF USE” (UNIVERSITEIT LEIDEN, priority 2022, published 2025).
In brackets after ≈: the same amount, converted by molar mass. Where a SMILES comes first, the peptide text is derived from it. Bridges are numbered along the chain shown (N, C = ends). [ ]: non-standard residue; d: D form. The star is where a group is joined. Phenylthio(4-OPh) = c1ccc(Oc2ccc(S*)cc2)cc1; S(2-cyclohexylethyl) = C1CCC(CCS*)CC1; S(3-Cl-benzyl) = Clc1cccc(CS*)c1; X3 = O=C(OCCSSCc1cccc(Cl)c1)*; S(3-Methylbutyl) = CC(C)CCS*; X4 = c1ccc(-c2ccc(S*)cc2)cc1; dDap = NC[C@@H](N)C(=O)O; Dab = NCC[C@H](N)C(=O)O; X2 = CC(C)CCSSCCOC(=O)*; Dap = NC[C@H](N)C(=O)O; X5 = CC(C)CCCCS*; Mpa = O=C(O)CCS

Tests used:
Type in all cases: cell-based
[1] = test system: P. Aeruginosa (ATCC 27853); details: ATCC 27853
Description: (§1) Compounds were prepared according to scheme 2, 3, 4, 6, 7, or 8 above, preparing different sets of compounds with different substitution patterns. All polymyxin analogues prepared were tested for their anti-bacterial activity on relevant Gram-negative strains (Table B). Polymyxin B and PMBN were taken along as references. In addition, the toxicity on renal Proximal Tubular Epithelial Cells (PTECs) was evaluated.
(§2) 3rd Generation compounds were also subjected to testing for their anti-bacterial activity on relevant Gram-negative strains (Table C). Polymyxin B and PMBN were taken along as references. In addition, the toxicity on renal Proximal Tubular Epithelial Cells (PTECs) was evaluated, see Table C.

[2] = test system: renal Proximal Tubular Epithelial Cells (PTECs); experiment: Toxicity on renal Proximal Tubular Epithelial Cells
Description: as §1, §2

[3] = test system: E. Coli (ATCC 25922); details: ATCC 25922
Description: as §1, §2

[4] = test system: K. Pneumoniae (ATCC 13883); details: ATCC 13883
Description: as §1, §2

SMILES | MIC P. Aeruginosa (ATCC 27853) [1] | PTEC Toxicity (relative to polymyxin B) [2] | MIC E. Coli (ATCC 25922) [3] | MIC K. Pneumoniae (ATCC 13883) [4]
CC(C)CCSSC[C@H](N)C(=O)N[C@H](C(=O)N[C@@H](CCN)C(=O)N[C@H]1CCNC(=O)[C@H]([C@@H](C)O)NC(=O)[C@H](CCN)NC(=O)[C@H](CCN)NC(=O)[C@H](CC(C)C)NC(=O)[C@@H](Cc2ccccc2)NC(=O)[C@H](CCN)NC1=O)[C@@H](C)O (H-C(S(3-Methylbutyl))T[Dab][Dab][Dab][dF]L[Dab][Dab]T; lactam 4-C) | 2 µg/mL (≈ 1.71 µM) | 9.8 |  | 
CC(C)C[C@@H]1NC(=O)[C@@H](Cc2ccccc2)NC(=O)[C@H](CCN)NC(=O)[C@@H](NC(=O)[C@H](CCN)NC(=O)[C@@H](NC(=O)CCSSc2ccc(Oc3ccccc3)cc2)[C@@H](C)O)CCNC(=O)[C@H]([C@@H](C)O)NC(=O)[C@H](CCN)NC(=O)[C@H](CCN)NC1=O ([Mpa](Phenylthio(4-OPh))T[Dab][Dab][Dab][dF]L[Dab][Dab]T; lactam 4-C) | 2 µg/mL (≈ 1.6 µM) |  | 8 µg/mL (≈ 6.39 µM) | 2 µg/mL (≈ 1.6 µM)
CC(C)C[C@@H]1NC(=O)[C@@H](Cc2ccccc2)NC(=O)[C@H](CCN)NC(=O)[C@@H](NC(=O)[C@H](CCN)NC(=O)[C@@H](NC(=O)CCSSCCC2CCCCC2)[C@@H](C)O)CCNC(=O)[C@H]([C@@H](C)O)NC(=O)[C@H](CCN)NC(=O)[C@H](CCN)NC1=O ([Mpa](S(2-cyclohexylethyl))T[Dab][Dab][Dab][dF]L[Dab][Dab]T; lactam 4-C) | 2 µg/mL (≈ 1.68 µM) |  | 4 µg/mL (≈ 3.35 µM) | 2 µg/mL (≈ 1.68 µM)
CC(C)CCSSCCOC(=O)N[C@H](C(=O)N[C@@H](CN)C(=O)N[C@H]1CCNC(=O)[C@H]([C@@H](C)O)NC(=O)[C@H](CCN)NC(=O)[C@H](CCN)NC(=O)[C@H](CC(C)C)NC(=O)[C@@H](Cc2ccccc2)NC(=O)[C@H](CCN)NC1=O)[C@@H](C)O (X2-T[Dap][Dab][Dab][dF]L[Dab][Dab]T; lactam 3-C) | 2 µg/mL (≈ 1.73 µM) |  | 4 µg/mL (≈ 3.46 µM) | 2 µg/mL (≈ 1.73 µM)
CC(C)CCSSCCOC(=O)N[C@H](C(=O)N[C@H](CO)C(=O)N[C@H]1CCNC(=O)[C@H]([C@@H](C)O)NC(=O)[C@H](CCN)NC(=O)[C@H](CCN)NC(=O)[C@H](CC(C)C)NC(=O)[C@@H](Cc2ccccc2)NC(=O)[C@H](CCN)NC1=O)[C@@H](C)O (X2-T[dS][Dab][Dab][dF]L[Dab][Dab]T; lactam 3-C) | 4 µg/mL (≈ 3.46 µM) |  | 4 µg/mL (≈ 3.46 µM) | 2 µg/mL (≈ 1.73 µM)
CC(C)C[C@@H]1NC(=O)[C@@H](Cc2ccccc2)NC(=O)[C@H](CCN)NC(=O)[C@@H](NC(=O)[C@H](CCN)NC(=O)[C@@H](NC(=O)CCSSc2ccc(-c3ccccc3)cc2)[C@@H](C)O)CCNC(=O)[C@H]([C@@H](C)O)NC(=O)[C@H](CCN)NC(=O)[C@H](CCN)NC1=O ([Mpa](X4)T[Dab][Dab][Dab][dF]L[Dab][Dab]T; lactam 4-C) | 4 µg/mL (≈ 3.24 µM) |  | 8 µg/mL (≈ 6.47 µM) | 2 µg/mL (≈ 1.62 µM)
CC(C)C[C@@H]1NC(=O)[C@@H](Cc2ccccc2)NC(=O)[C@H](CCN)NC(=O)[C@@H](NC(=O)[C@H](CCN)NC(=O)[C@@H](NC(=O)OCCSSCc2cccc(Cl)c2)[C@@H](C)O)CCNC(=O)[C@H]([C@@H](C)O)NC(=O)[C@H](CCN)NC(=O)[C@H](CCN)NC1=O (X3-T[Dab][Dab][Dab][dF]L[Dab][Dab]T; lactam 3-C) | 1 µg/mL (≈ 0.817 µM) | 1.3 | 4 µg/mL (≈ 3.27 µM) | 1 µg/mL (≈ 0.817 µM)
CC(C)C[C@@H]1NC(=O)[C@@H](Cc2ccccc2)NC(=O)[C@H](CCN)NC(=O)[C@@H](NC(=O)[C@H](CCN)NC(=O)[C@@H](NC(=O)[C@H](N)CSSCc2cccc(Cl)c2)[C@@H](C)O)CCNC(=O)[C@H]([C@@H](C)O)NC(=O)[C@H](CCN)NC(=O)[C@H](CCN)NC1=O [drawing 121] (H-[dC](S(3-Cl-benzyl))T[Dab][Dab][Dab][dF]L[Dab][Dab]T; lactam 4-C) |  | 1.8 | 1 µg/mL (≈ 0.818 µM) | 0.5 µg/mL (≈ 0.409 µM)
CC(C)C[C@@H]1NC(=O)[C@@H](Cc2ccccc2)NC(=O)[C@H](CCN)NC(=O)[C@@H](NC(=O)[C@H](CN)NC(=O)[C@@H](NC(=O)OCCSSCc2cccc(Cl)c2)[C@@H](C)O)CCNC(=O)[C@H]([C@@H](C)O)NC(=O)[C@H](CCN)NC(=O)[C@H](CCN)NC1=O (X3-T[Dap][Dab][Dab][dF]L[Dab][Dab]T; lactam 3-C) | 4 µg/mL (≈ 3.31 µM) | 0.8 | 8 µg/mL (≈ 6.61 µM) | 4 µg/mL (≈ 3.31 µM)
CC(C)CCCCSSCCC(=O)N[C@H](C(=O)N[C@@H](CCN)C(=O)N[C@H]1CCNC(=O)[C@H]([C@@H](C)O)NC(=O)[C@H](CCN)NC(=O)[C@H](CCN)NC(=O)[C@H](CC(C)C)NC(=O)[C@@H](Cc2ccccc2)NC(=O)[C@H](CCN)NC1=O)[C@@H](C)O ([Mpa](X5)T[Dab][Dab][Dab][dF]L[Dab][Dab]T; lactam 4-C) | 2 µg/mL (≈ 1.69 µM) |  | 4 µg/mL (≈ 3.39 µM) | 2 µg/mL (≈ 1.69 µM)
CC(C)C[C@@H]1NC(=O)[C@@H](Cc2ccccc2)NC(=O)[C@H](CCN)NC(=O)[C@@H](NC(=O)[C@H](CCN)NC(=O)[C@@H](NC(=O)[C@H](N)CSSCCC2CCCCC2)[C@@H](C)O)CCNC(=O)[C@H]([C@@H](C)O)NC(=O)[C@H](CCN)NC(=O)[C@H](CCN)NC1=O [drawing 87] (H-[dC](S(2-cyclohexylethyl))T[Dab][Dab][Dab][dF]L[Dab][Dab]T; lactam 4-C) | 2 µg/mL (≈ 1.65 µM) | 1.2 | 1 µg/mL (≈ 0.827 µM) | 
CC(C)CCSSCCOC(=O)N[C@H](C(=O)N[C@@H](CCN)C(=O)N[C@H]1CCNC(=O)[C@H]([C@@H](C)O)NC(=O)[C@H](CCN)NC(=O)[C@H](CCN)NC(=O)[C@H](CC(C)C)NC(=O)[C@@H](Cc2ccccc2)NC(=O)[C@H](CCN)NC1=O)[C@@H](C)O (X2-T[Dab][Dab][Dab][dF]L[Dab][Dab]T; lactam 3-C) | 2 µg/mL (≈ 1.71 µM) | 0.9 | 8 µg/mL (≈ 6.84 µM) | 8 µg/mL (≈ 6.84 µM)
CC(C)CCSSCCOC(=O)N[C@H](C(=O)N[C@H](CN)C(=O)N[C@H]1CCNC(=O)[C@H]([C@@H](C)O)NC(=O)[C@H](CCN)NC(=O)[C@H](CCN)NC(=O)[C@H](CC(C)C)NC(=O)[C@@H](Cc2ccccc2)NC(=O)[C@H](CCN)NC1=O)[C@@H](C)O (X2-T[dDap][Dab][Dab][dF]L[Dab][Dab]T; lactam 3-C) | 2 µg/mL (≈ 1.73 µM) | 2.9 | 4 µg/mL (≈ 3.46 µM) | 2 µg/mL (≈ 1.73 µM)
